In patent US11477967B2, “Microfluidic device, system and methods thereof for measuring and recording electrical signals from a pool of multiple nematodes” (NemaMetrix Inc., priority 2018, dated 2022):

Experiments:
Type in all cases: in vivo, C. elegans
[1] = tested on: pool of multiple nematodes; experiment: composite EPG from a pool of multiple nematodes, microfluidic device 500 / system 600, Solution A versus Solution B; conditions: same pool of nematodes; Solution A normal M9 buffer 16 min, Solution B serotonin M9 buffer 25 min; FIG. 7C
Description: To obtain nematodes of a consistent size that were compatible with the dimensions of the recording channel 515, we used the method of Example 2. Alternative methods using filters can also be used to obtain an age/size synchronized population of nematodes for use. See US Patent Publ. No. 2019/0090458.
To prepare nematodes for recording, we used the method of Example 2, except that the final resuspension used “normal M9 buffer solution,” defined in Table 3.
For filling the microfluidic device, we used the method of Example 2, except that the syringe and tubing were filled with “normal M9 buffer solution.”
At the end of this recording, the normal M9 buffer solution was replaced with Solution B, serotonin M9 buffer solution disclosed in Example 1, without dislodging the original pool of nematodes. Replacement was accomplished by exchanging the syringe and tubing filled with normal M9 buffer solution for a syringe and tubing filled with serotonin M9 buffer solution. […]
The center frequency of this peak is within the expected range of pharyngeal pumping frequency. […] However, as the same population of nematodes was recorded under conditions of the two different buffer solutions in FIG. 7C, but not in FIG. 4C, FIG. 7C establishes, in addition, that the system 600 can be used to measure the effect of drugs or other test compounds on pharyngeal pumping. […]

nematodes = experiment: single-nematode EPG recordings (ScreenChip System) and synthetic composite EPG summed from them
Protocol: (§1) To obtain nematodes of a consistent size that were compatible with the dimensions of the recording channel 120, we utilized a common procedure to obtain a large number of age synchronized eggs. Eggs were deposited in a culture plate containing food and cultivated at 20 C for 3 days, yielding a large population of young adult nematodes.
To prepare nematodes for recording, 2 mL of “normal M9 buffer solution,” defined in Table 3, was added to a culture plate containing young adult nematodes grown from synchronized eggs. The plate was swirled to lift nematodes into the solution and the contents were poured into a 2 mL Eppendorf tube. Nematodes were cleaned of adherent bacteria and debris by 5 cleaning cycles each of which involved pelleting nematodes in a centrifuge (1.2 g, 30 sec), drawing off the supernatant, and resuspending in M9 buffer. […]
According to circuit theory, (i) the waveform of a composite EPG recorded at electrodes 135 and 145 should be the sum of the voltage differences generated by each nematode at its unique location and orientation with respect to the electrodes and other nematodes, and (ii) the peak frequency of the waveform's power spectrum should represent the average pumping frequency of the population of nematodes between the electrodes. […]

[2] = tested on: pool of multiple nematodes; experiment: composite EPG from a pool of multiple nematodes, microfluidic device 100 / system 200; conditions: approximately 25 nematodes between electrodes, serotonin M9 buffer solution (10 mM serotonin); peak absent in normal M9 buffer; FIG. 4C
Protocol: as §1
To prepare nematodes for recording, 2 mL of “normal M9 buffer solution,” defined in Table 3, was added to a culture plate containing young adult nematodes grown from synchronized eggs. The plate was swirled to lift nematodes into the solution and the contents were poured into a 2 mL Eppendorf tube. Nematodes were cleaned of adherent bacteria and debris by 5 cleaning cycles each of which involved pelleting nematodes in a centrifuge (1.2 g, 30 sec), drawing off the supernatant, and resuspending in M9 buffer. To stimulate pharyngeal pumping, the final resuspension used “serotonin M9 buffer solution” which contained 10 mM serotonin in addition to the constituents in Table 3. […]
Two lines of evidence indicate that the recorded activity represents pharyngeal pumping.

Structure (SMILES): NCCc1c[nH]c2ccc(O)cc12 [serotonin]
- center frequency of peak of difference trace between power spectra of Solution B and Solution A [1]: 5 Hz
- average pumping frequency (nematodes; 22 nematodes, single-nematode EPGs in serotonin M9 buffer solution (10 mM serotonin), 10-14 min, ± SEM): 4.9±0.13 Hz
- peak frequency of power spectrum of synthetic (in silico) composite EPG recording (nematodes; sum of all 22 single-nematode EPG measurements in serotonin M9 buffer solution (10 mM serotonin), FIG. 3E): 5.1 Hz
- peak of power spectrum of composite EPG [2]: 5.6 Hz
